From US20260007681A1, “INDOLE DERIVATIVES AS ESTROGEN RECEPTOR DEGRADERS” (REGENTS OF THE UNIVERSITY OF MICHIGAN, priority 2022, published 2026)

Target: ER (Homo sapiens (Human), UniProt P03372)
Test: Western blot analysis (Compounds B1-B278)
Type: cell-based
Settings: ER degradation by traditional Western blot; DC50 classes
Protocol: Western Blot Analysis. The cells that are treated with the compounds are lysed in Radioimmunoprecipitation Assay Protein Lysis and Extraction Buffer (e.g., 25 mmol/L Tris.HCl, pH 7.6, 150 mmol/L NaCl, 1% Nonidet P-40, 1% sodium deoxycholate, and 0.1% sodium dodecyl sulfate) containing proteinase inhibitor cocktail. Equal amounts of total protein are electrophoresed through 10% SDS-polyacrylamide gels after determination of protein concentration by BCA assay. The separated protein bands are transferred onto PVDF membranes and blotted against different antibodies. The blots are scanned, and the band intensities are quantified (e.g., by using GelQuant.NET software provided by biochemlabsolutions.com). The relative mean intensity of target proteins is expressed after normalization to the intensity of glyceraldehyde-3-phosphate dehydrogenase bands.
Western Blot Analysis. Western blot analysis was performed essentially as described previously. The cells treated with indicated compounds were lysed in Radioimmunoprecipitation Assay Protein Lysis and Extraction Buffer (25 mmol/L Tris.HCl, pH 7.6, 150 mmol/L NaCl, 1% Nonidet P-40, 1% sodium deoxycholate, and 0.1% sodium dodecyl sulfate) containing proteinase inhibitor cocktail (Roche Diagnostics, Mannheim, Germany). Equal amounts of total protein were electrophoresed through 10% SDS-polyacrylamide gels after determination of protein concentration by BCA assay (Fisher Scientific, Pittsburgh, PA). The separated protein bands were transferred onto PVDF membranes (GE Healthcare Life Sciences, Marlborough, MA) and blotted against different antibodies, as indicated. The blots were scanned, and the band intensities were quantified using GelQuant.NET software provided by biochemlabsolutions.com. The relative mean intensity of target proteins was expressed after normalization to the intensity of glyceraldehyde-3-phosphate dehydrogenase bands.

Sequence of ER (P03372 whole entry): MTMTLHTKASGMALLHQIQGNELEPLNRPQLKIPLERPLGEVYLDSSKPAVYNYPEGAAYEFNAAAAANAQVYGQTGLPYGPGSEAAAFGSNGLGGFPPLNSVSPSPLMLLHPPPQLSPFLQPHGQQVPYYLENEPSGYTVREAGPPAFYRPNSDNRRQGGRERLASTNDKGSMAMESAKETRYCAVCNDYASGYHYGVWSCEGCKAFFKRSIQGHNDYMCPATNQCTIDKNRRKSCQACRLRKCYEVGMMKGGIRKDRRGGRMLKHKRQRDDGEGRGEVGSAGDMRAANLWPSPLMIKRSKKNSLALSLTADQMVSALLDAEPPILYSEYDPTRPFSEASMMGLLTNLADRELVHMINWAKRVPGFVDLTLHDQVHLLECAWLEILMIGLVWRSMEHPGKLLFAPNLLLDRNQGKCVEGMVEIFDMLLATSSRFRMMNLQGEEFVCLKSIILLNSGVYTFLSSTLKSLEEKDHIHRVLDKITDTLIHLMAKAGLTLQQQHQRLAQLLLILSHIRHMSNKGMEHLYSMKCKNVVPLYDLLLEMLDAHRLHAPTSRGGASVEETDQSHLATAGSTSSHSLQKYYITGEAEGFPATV

Row | SMILES | Traditional Western Degradation Potency
1 | C[C@@H]1Cc2c([nH]c3ccccc23)[C@@H](c2c(F)cc(N3CCC(N4CCN(CC(=O)N5Cc6cc7c(cc6C5)C(=O)N(C5CCC(=O)NC5=O)C7)CC4)CC3)cc2F)N1CC(F)F (stereo partly drawn) [Compound B36, 3-(6-(2-(4-(1-(4-((1R,3R)-2-(2,2-difluoroethyl)-3-methyl-2,3,4,9-tetrahydro-1H-pyrido[3,4-b]indol-1-yl)-3,5-difluorophenyl)piperidin-4-yl)piperazin-1-yl)acetyl)-1-oxo-3,5,6,7-tetrahydropyrrolo[3,4-f]isoindol-2(1H)-yl)piperidine-2,6-dione] | A (“A”: <10 nM)
2 | C[C@@H]1Cc2c([nH]c3ccccc23)[C@@H](c2c(F)cc(N3CCC4(CC3)CC(C(=O)N3CCC(CN5Cc6cc7c(cc6C5)C(=O)N(C5CCC(=O)NC5=O)C7=O)CC3)C4)cc2F)N1CC(F)F (stereo partly drawn) [Compound B39, 6-((1-(7-(4-((1R,3R)-2-(2,2-difluoroethyl)-3-methyl-2,3,4,9-tetrahydro-1H-pyrido[3,4-b]indol-1-yl)-3,5-difluorophenyl)-7-azaspiro[3.5]nonane-2-carbonyl)piperidin-4-yl)methyl)-2-(2,6-dioxopiperidin-3-yl)-6,7-dihydropyrrolo[3,4-f]isoindole-1,3(2H,5H)-dione] | B (“B”: 10-100 nM)
3 | C[C@@H]1Cc2c([nH]c3ccccc23)[C@@H](c2c(F)cc(N3CCC4(CC3)CC(C(=O)N3CCC(N5Cc6cc7c(cc6C5)C(=O)N(C5CCC(=O)NC5=O)C7=O)CC3)C4)cc2F)N1CC(F)F (stereo partly drawn) [Compound B40, 6-(1-(7-(4-((1R,3R)-2-(2,2-difluoroethyl)-3-methyl-2,3,4,9-tetrahydro-1H-pyrido[3,4-b]indol-1-yl)-3,5-difluorophenyl)-7-azaspiro[3.5]nonane-2-carbonyl)piperidin-4-yl)-2-(2,6-dioxopiperidin-3-yl)-6,7-dihydropyrrolo[3,4-f]isoindole-1,3(2H,5H)-dione] | A (“A”: <10 nM)
4 | C[C@@H]1Cc2c([nH]c3ccccc23)[C@@H](c2c(F)cc(N3CCC4(CC3)CC(C(=O)N3CCC(N5Cc6cc7c(cc6C5)C(=O)N(C5CCC(=O)NC5=O)C7)CC3)C4)cc2F)N1CC(F)F (stereo partly drawn) [Compound B41, 3-(6-(1-(7-(4-((1R,3R)-2-(2,2-difluoroethyl)-3-methyl-2,3,4,9-tetrahydro-1H-pyrido[3,4-b]indol-1-yl)-3,5-difluorophenyl)-7-azaspiro[3.5]nonane-2-carbonyl)piperidin-4-yl)-1-oxo-3,5,6,7-tetrahydropyrrolo[3,4-f]isoindol-2(1H)-yl)piperidine-2,6-dione] | A (“A”: <10 nM)
5 | C[C@@H]1Cc2c([nH]c3ccccc23)[C@@H](c2c(F)cc(N3CC(CC(=O)N4Cc5cc6c(cc5C4)C(=O)N(C4CCC(=O)NC4=O)C6)C3)cc2F)N1CC(F)F (stereo partly drawn) [Compound B42, 3-(6-(2-(1-(4-((1R,3R)-2-(2,2-difluoroethyl)-3-methyl-2,3,4,9-tetrahydro-1H-pyrido[3,4-b]indol-1-yl)-3,5-difluorophenyl)azetidin-3-yl)acetyl)-1-oxo-3,5,6,7-tetrahydropyrrolo[3,4-f]isoindol-2(1H)-yl)piperidine-2,6-dione] | C (“C”: >100 nM)
6 | C[C@@H]1Cc2c([nH]c3ccccc23)[C@@H](c2c(F)cc(N3CC(CC(=O)N4CC(N5Cc6cc7c(cc6C5)C(=O)N(C5CCC(=O)NC5=O)C7)C4)C3)cc2F)N1CC(F)F (stereo partly drawn) [Compound B43, 3-(6-(1-(2-(1-(4-((1R,3R)-2-(2,2-difluoroethyl)-3-methyl-2,3,4,9-tetrahydro-1H-pyrido[3,4-b]indol-1-yl)-3,5-difluorophenyl)azetidin-3-yl)acetyl)azetidin-3-yl)-1-oxo-3,5,6,7-tetrahydropyrrolo[3,4-f]isoindol-2(1H)-yl)piperidine-2,6-dione] | B (“B”: 10-100 nM)
7 | C[C@@H]1Cc2c([nH]c3ccccc23)[C@@H](c2c(F)cc(N3CCC(CC(=O)N4Cc5cc6c(cc5C4)C(=O)N(C4CCC(=O)NC4=O)C6)CC3)cc2F)N1CC(F)F (stereo partly drawn) [Compound B44, 3-(6-(2-(1-(4-((1R,3R)-2-(2,2-difluoroethyl)-3-methyl-2,3,4,9-tetrahydro-1H-pyrido[3,4-b]indol-1-yl)-3,5-difluorophenyl)piperidin-4-yl)acetyl)-1-oxo-3,5,6,7-tetrahydropyrrolo[3,4-f]isoindol-2(1H)-yl)piperidine-2,6-dione] | C (“C”: >100 nM)

Continued, values first:

Row | Traditional Western Degradation Potency | SMILES
8 | B (“B”: 10-100 nM) | C[C@@H]1Cc2c([nH]c3ccccc23)[C@@H](c2c(F)cc(N3CC4(CCN(CC(=O)N5Cc6cc7c(cc6C5)C(=O)N(C5CCC(=O)NC5=O)C7=O)CC4)C3)cc2F)N1CC(F)F (stereo partly drawn) [Compound B37, 6-(2-(2-(4-((1R,3R)-2-(2,2-difluoroethyl)-3-methyl-2,3,4,9-tetrahydro-1H-pyrido[3,4-b]indol-1-yl)-3,5-difluorophenyl)-2,7-diazaspiro[3.5]nonan-7-yl)acetyl)-2-(2,6-dioxopiperidin-3-yl)-6,7-dihydropyrrolo[3,4-f]isoindole-1,3(2H,5H)-dione]
9 | A (“A”: <10 nM) | C[C@@H]1Cc2c([nH]c3ccccc23)[C@@H](c2c(F)cc(N3CC4(CCN(CC(=O)N5Cc6cc7c(cc6C5)C(=O)N(C5CCC(=O)NC5=O)C7)CC4)C3)cc2F)N1CC(F)F (stereo partly drawn) [Compound B38, 3-(6-(2-(2-(4-((1R,3R)-2-(2,2-difluoroethyl)-3-methyl-2,3,4,9-tetrahydro-1H-pyrido[3,4-b]indol-1-yl)-3,5-difluorophenyl)-2,7-diazaspiro[3.5]nonan-7-yl)acetyl)-1-oxo-3,5,6,7-tetrahydropyrrolo[3,4-f]isoindol-2(1H)-yl)piperidine-2,6-dione]
10 | C (“C”: >100 nM) | C[C@@H]1Cc2c([nH]c3ccccc23)[C@@H](c2c(F)cc(N3CC4(CCCN(CC(=O)N5Cc6cc7c(cc6C5)C(=O)N(C5CCC(=O)NC5=O)C7=O)C4)C3)cc2F)N1CC(F)F (stereo partly drawn) [Compound B45, 6-(2-(2-(4-((1R,3R)-2-(2,2-difluoroethyl)-3-methyl-2,3,4,9-tetrahydro-1H-pyrido[3,4-b]indol-1-yl)-3,5-difluorophenyl)-2,6-diazaspiro[3.5]nonan-6-yl)acetyl)-2-(2,6-dioxopiperidin-3-yl)-6,7-dihydropyrrolo[3,4-f]isoindole-1,3(2H,5H)-dione]
11 | B (“B”: 10-100 nM) | C[C@@H]1Cc2c([nH]c3ccccc23)[C@@H](c2c(F)cc(N3CC4(CCCN(CC(=O)N5Cc6cc7c(cc6C5)C(=O)N(C5CCC(=O)NC5=O)C7)C4)C3)cc2F)N1CC(F)F (stereo partly drawn) [Compound B46, 3-(6-(2-(2-(4-((1R,3R)-2-(2,2-difluoroethyl)-3-methyl-2,3,4,9-tetrahydro-1H-pyrido[3,4-b]indol-1-yl)-3,5-difluorophenyl)-2,6-diazaspiro[3.5]nonan-6-yl)acetyl)-1-oxo-3,5,6,7-tetrahydropyrrolo[3,4-f]isoindol-2(1H)-yl)piperidine-2,6-dione]
12 | A (“A”: <10 nM) | C[C@@H]1Cc2c([nH]c3ccccc23)[C@@H](c2c(F)cc(N3CCC4(CCN(CC(=O)N5Cc6cc7c(cc6C5)C(=O)N(C5CCC(=O)NC5=O)C7=O)CC4)C3)cc2F)N1CC(F)F (stereo partly drawn) [Compound B47, 6-(2-(2-(4-((1R,3R)-2-(2,2-difluoroethyl)-3-methyl-2,3,4,9-tetrahydro-1H-pyrido[3,4-b]indol-1-yl)-3,5-difluorophenyl)-2,8-diazaspiro[4.5]decan-8-yl)acetyl)-2-(2,6-dioxopiperidin-3-yl)-6,7-dihydropyrrolo[3,4-f]isoindole-1,3(2H,5H)-dione]
13 | A (“A”: <10 nM) | C[C@@H]1Cc2c([nH]c3ccccc23)[C@@H](c2c(F)cc(N3CCC4(CCN(CC(=O)N5Cc6cc7c(cc6C5)C(=O)N(C5CCC(=O)NC5=O)C7)CC4)C3)cc2F)N1CC(F)F (stereo partly drawn) [Compound B48, 3-(6-(2-(2-(4-((1R,3R)-2-(2,2-difluoroethyl)-3-methyl-2,3,4,9-tetrahydro-1H-pyrido[3,4-b]indol-1-yl)-3,5-difluorophenyl)-2,8-diazaspiro[4.5]decan-8-yl)acetyl)-1-oxo-3,5,6,7-tetrahydropyrrolo[3,4-f]isoindol-2(1H)-yl)piperidine-2,6-dione]
14 | C (“C”: >100 nM) | C[C@@H]1Cc2c([nH]c3ccccc23)[C@@H](c2c(F)cc(N3CCC(N4CCC(C(=O)N5Cc6cc7c(cc6C5)C(=O)N(C5CCC(=O)NC5=O)C7=O)CC4)C3)cc2F)N1CC(F)F (stereo partly drawn) [Compound B50, 6-(1-(1-(4-((1R,3R)-2-(2,2-difluoroethyl)-3-methyl-2,3,4,9-tetrahydro-1H-pyrido[3,4-b]indol-1-yl)-3,5-difluorophenyl)pyrrolidin-3-yl)piperidine-4-carbonyl)-2-(2,6-dioxopiperidin-3-yl)-6,7-dihydropyrrolo[3,4-f]isoindole-1,3(2H,5H)-dione]
